# According to patent EP4603105A1, “PHARMACEUTICAL COMPOSITION CONTAINING CYCLIC COMPOUND HAVING SELECTIVE KRAS INHIBITORY EFFECT AGAINST HRAS AND NRAS” (CHUGAI SEIYAKU KABUSHIKI KAISHA, priority 2022, dated 2024):
# pIC50, pKd: −log10 of the molar value. Where a SMILES comes first, the peptide text is derived from it. Bridges are numbered along the chain shown (N, C = ends). [ ]: non-standard residue; d: D form. The star is where a group is joined. hPhe(3-Cl-4-CF3) = N[C@@H](CCc1ccc(C(F)(F)F)c(Cl)c1)C(=O)O; NPrPhe(4-CF3) = CCCN[C@@H](Cc1ccc(C(F)(F)F)cc1)C(=O)O; NMeGly(cPent) = CN[C@H](C(=O)O)C1CCCC1; NMeD = CN[C@@H](CC(=O)O)C(=O)O; NMeL = CN[C@@H](CC(C)C)C(=O)O; Morpholide = C1CN(*)CCO1; Ac5c = NC1(C(=O)O)CCCC1; Aze = O=C(O)[C@@H]1CCN1; Sar = CNCC(=O)O
# Tests used:
# [1] = biological target: GDP-bound KRAS wild-type protein (Homo sapiens, UniProt P01116); assay: Binding to KRAS by surface plasmon resonance (SPR), dissociation constant KD; settings: 1:1 binding model
# How it was run: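 Biotinylated GDP-bound RAS was captured at about 100–300 RU. Running buffer: HBS pH 7.4, 10 mM MgCl2, 10 µM GDP, 1 mM DTT, 0.01% Tween 20, 4% DMSO.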
# [2] = biological target: GDP-bound NRAS wild-type protein (Homo sapiens, UniProt P01111); assay: Binding to NRAS by surface plasmon resonance (SPR), KD and KD ratio to KRAS
# How it was run: (§1)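 GDP-loaded biotinylated Avi-tag RAS proteins (E. coli-expressed) captured on a Biotin CAPture chip at ~100–300 RU; single-cycle kinetics at 30°C, 100 µL/min, 75 s injections of rising compound concentrations. HBS pH 7.4 running buffer with 1 mM DTT, 10 mM MgCl2, 10 µM GDP, 4% DMSO. KD from 1:1 binding fit.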
# [3] = biological target: HRAS wild-type protein (Homo sapiens, UniProt P01112); assay: Binding to HRAS by surface plasmon resonance (SPR), KD and KD ratio to KRAS
# How it was run: as §1
# [4] = system: human lung cancer strain NCI-H441; type: cell-based
# How it was run: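 Readout: […] after the ATP-based reagent. Compound: serial dilutions in dimethyl sulfoxide.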
# [5] = ratio of KD for GDP-bound NRAS wild-type protein to KD for KRAS
# [6] = ratio of KD for HRAS wild-type protein to KD for KRAS
# [7] = ratio of the KD value with respect to GDP-bound NRAS wild-type protein to the KD value with respect to KRAS
# [8] = ratio of the KD value with respect to HRAS wild-type protein to the KD value with respect to KRAS
# Sequence of GDP-bound NRAS wild-type protein (P01111 whole entry): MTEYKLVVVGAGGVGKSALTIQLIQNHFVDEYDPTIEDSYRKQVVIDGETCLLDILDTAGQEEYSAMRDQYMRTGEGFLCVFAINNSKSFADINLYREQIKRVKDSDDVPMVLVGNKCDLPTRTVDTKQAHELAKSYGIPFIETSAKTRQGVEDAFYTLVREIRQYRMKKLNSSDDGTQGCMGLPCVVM
# Sequence of GDP-bound KRAS wild-type protein (P01116 1-188 isoform P01116-2): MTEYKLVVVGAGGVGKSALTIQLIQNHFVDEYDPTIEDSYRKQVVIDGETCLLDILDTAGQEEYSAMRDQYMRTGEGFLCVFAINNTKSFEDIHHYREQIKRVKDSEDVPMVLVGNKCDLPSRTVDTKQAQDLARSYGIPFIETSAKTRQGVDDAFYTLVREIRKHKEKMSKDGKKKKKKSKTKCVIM
# Sequence of HRAS wild-type protein (P01112 whole entry): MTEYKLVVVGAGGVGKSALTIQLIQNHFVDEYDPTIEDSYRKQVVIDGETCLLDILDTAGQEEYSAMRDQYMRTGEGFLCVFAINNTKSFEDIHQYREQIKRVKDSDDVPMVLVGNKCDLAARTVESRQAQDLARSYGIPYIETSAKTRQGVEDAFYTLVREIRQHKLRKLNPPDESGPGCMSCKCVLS
SMILES,pKd [1],pIC50 [4],pKd ([1]; Single Cycle Kinetics),"NRAS /KRAS [2, 5]","HRAS /KRAS [3, 6]","NRAS /KRAS [2, 7]","HRAS /KRAS [3, 8]"
CCCN1C(=O)[C@@H]2CCN2C(=O)[C@@H]2CCN2C(=O)[C@H]([C@@H](C)CC)NC(=O)[C@H](CC(C)C)N(C)C(=O)C[C@@H](C(=O)N2CCOCC2)N(C)C(=O)[C@H](C2CCCC2)N(C)C(=O)C2(CCCC2)NC(=O)[C@@H]2CCCN2C(=O)[C@H](CCc2ccc(C(F)(F)F)c(Cl)c2)NC(=O)CN(C)C(=O)[C@@H]1Cc1ccc(C(F)(F)F)cc1 [PP0168] ([NMeL]I[Aze][Aze][NPrPhe(4-CF3)][Sar][hPhe(3-Cl-4-CF3)]P[Ac5c][NMeGly(cPent)][NMeD]-Morpholide; lactam N-11),9.17,7.58,–,C (A compound having a KD ratio of 0.1 or more and less than 3 is denoted as C),B (a compound having 3 or more and less than 10 is denoted as B),–,–
CC[C@@H]1C[C@H]2C(=O)NC3(CCC3)C(=O)N(C)[C@@H](C3CCCC3)C(=O)N(C)[C@H](C(=O)N(C)C)CC(=O)N(C)[C@@H](CC(C)C)C(=O)N[C@@H]([C@@H](C)CC)C(=O)N(C)CC(=O)N(C)[C@H]3C/C=C\CCN(C3=O)[C@@H](Cc3ccc(C)cc3)C(=O)N(C)CC(=O)N[C@@H](CCc3cc(F)c(C(F)(F)F)c(F)c3)C(=O)N2C1 [PP2220],–,7.49,9.85,–,–,A (a compound having 10 or more and less than 20 is denoted as A),A (a compound having 10 or more and less than 20 is denoted as A)
CCCOC[C@H]1C(=O)N[C@@H]([C@@H](C)CC)C(=O)N(C)CC(=O)N(C)[C@H]2C/C=C\CCN(C2=O)[C@@H](Cc2ccc(C)cc2)C(=O)N(C)CC(=O)N[C@@H](CCc2cc(F)c(C(F)(F)F)c(F)c2)C(=O)N2C[C@H](C)C[C@H]2C(=O)NC2(CCCC2)C(=O)N(C)[C@@H](C2CCCC2)C(=O)N(C)[C@H](C(=O)N(C)C)CC(=O)N1C [PP2225],–,7.38,9.70,–,–,A (a compound having 10 or more and less than 20 is denoted as A),A (a compound having 10 or more and less than 20 is denoted as A)
CCO[C@@H]1C[C@H]2C(=O)NC3(CC(C)(C)C3)C(=O)N(C)[C@@H](C3CCCC3)C(=O)N(C)[C@H](C(=O)N(C)C)CC(=O)N(C)[C@@H]([C@@H](C)OC)C(=O)N[C@@H]([C@@H](C)CC)C(=O)N(C3CC3)CC(=O)N(C)[C@H]3C/C=C\CCN(C3=O)[C@@H](Cc3ccc(C)cc3)C(=O)N(C)CC(=O)N[C@@H](CCc3ccc(C(F)(F)F)c(OC)c3)C(=O)N2C1 [PP3210],9.28,7.72,–,A (a compound having 10 or more and less than 20 is denoted as A),B (a compound having 3 or more and less than 10 is denoted as B),–,–

# Compounds with a higher pIC50 [4], results first:
pKd [1],pIC50 [4],pKd ([1]; Single Cycle Kinetics),SMILES,"NRAS /KRAS [2, 5]","HRAS /KRAS [3, 6]","NRAS /KRAS [2, 7]","HRAS /KRAS [3, 8]"
–,7.87,9.59,CCC[C@H]1C(=O)N[C@@H]([C@@H](C)CC)C(=O)N(C)CC(=O)N(C)[C@H]2C/C=C\CCN(C2=O)[C@@H](Cc2ccc(C)cc2)C(=O)N(C)CC(=O)N[C@@H](CCc2cc(F)c(C(F)(F)F)c(F)c2)C(=O)N2C[C@H](OCC)C[C@H]2C(=O)NC2(CC(C)(C)C2)C(=O)N(C)[C@@H](C(CC)CC)C(=O)N(C)[C@H](C(=O)N(C)C)CC(=O)N1C [PP2064],–,–,A (a compound having 10 or more and less than 20 is denoted as A),A (a compound having 10 or more and less than 20 is denoted as A)
10.12,8.01,–,CCO[C@@H]1C[C@H]2C(=O)NC3(CC(C)(C)C3)C(=O)N(C)[C@@H](C3CCCC3)C(=O)N(C)[C@H](C(=O)N(C)CC)CC(=O)N(C)[C@@H]([C@@H](C)OC)C(=O)N[C@@H]([C@@H](C)CC)C(=O)N(C)CC(=O)N(C)[C@H]3C/C=C\CCN(C3=O)[C@@H](Cc3ccc(C(F)(F)F)cc3)C(=O)N(C)CC(=O)N[C@@H](CCc3ccc(C(F)(F)F)c(OC)c3)C(=O)N2C1 [PP3158],A (a compound having 10 or more and less than 20 is denoted as A),A (a compound having 10 or more and less than 20 is denoted as A),–,–
–,8.28,10.00,CC[C@H](C)[C@@H]1NC(=O)[C@H](CC(C)C)N(C)C(=O)C[C@@H](C(=O)N(C)C)N(C)C(=O)[C@H](C2CCCC2)N(C)C(=O)C2(CC(C)(C)C2)NC(=O)[C@@H]2C[C@@H](C)CN2C(=O)[C@H](CCc2cc(F)c(C(F)(F)F)c(F)c2)NC(=O)CN(C)C(=O)[C@H](Cc2ccc(C)cc2)N2CC/C=C\C[C@@H](C2=O)N(C)C(=O)CN(C)C1=O [PP2223],–,–,A (a compound having 10 or more and less than 20 is denoted as A),A (a compound having 10 or more and less than 20 is denoted as A)
